These molecules were tested on Human RSV-A (“Long” strain) (assay: RSV in vitro cytoprotection assay in HEp-2 cells (ATPlite readout)). Conditions: human respiratory syncytial virus, 96 h; HEp-2 cells, 4-day incubation, ATPlite; read-out: Human RSV-A (“Long” strain) EC50.
Format: cell-based
How it was run: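 HEp-2 cells (8,000/well) given 2-fold compound dilutions in duplicate, then infected with RSV-A Long stock; 4-day incubation. Cell viability read by ATPlite luminescence (ATP), with parallel uninfected plate for cytotoxicity; EC50 from protection against CPE.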

EC50 [nM]	SMILES
10 to 50	Cc1cnc(N2CC3(CCOCC3)C2)c(C(=O)Nc2ccc(C(=O)N3CCc4cc(-c5ccc[nH]c5=O)sc4-c4ncc(F)cc43)cc2)c1 [Example 110]
< 10	Cc1ccc(C(=O)Nc2ccc(C(=O)N3CCc4c(sc(-c5nc6cccc(F)c6[nH]5)c4F)-c4ncccc43)cc2)c(N2CC3(CCOCC3)C2)n1 [Example 85]
> 50	Cc1cnc(N2CC3(CCOCC3)C2)c(C(=O)Nc2ccc(C(=O)N3CCc4cc(C(=O)Nc5c(Cl)cccc5Cl)sc4-c4cc(C)sc43)cc2)c1 [Example 130]
10 to 50	Cc1cnc(N2CC3(CCOCC3)C2)c(C(=O)Nc2ccc(C(=O)N3CCc4cc(C(=O)N[C@H]5CCOC5)sc4-c4ncccc43)cc2)c1 [Example 18]
< 10	Cc1cnc(N2CC3(CCOCC3)C2)c(C(=O)Nc2ccc(C(=O)N3CCc4c(sc(C(=O)Nc5c(C)cccc5F)c4F)-c4ncccc43)cc2)c1 [Example 73]
10 to 50	Cc1cnc(N2CC3(CCOCC3)C2)c(C(=O)Nc2ccc(C(=O)N3CCc4cc(C(=O)Nc5c(F)cccc5F)sc4-c4ncccc43)cc2F)c1 [Example 47]
< 10	Cc1cnc(N2CCC3(CC2)COC3)c(C(=O)Nc2ccc(C(=O)N3CCc4cc(C(=O)Nc5c(F)cccc5Cl)sc4-c4ncccc43)cc2)c1 [Example 93]
< 10	Cc1ccc(C(=O)Nc2ccc(C(=O)N3CCc4cc(-c5nc6cccc(F)c6[nH]5)sc4-c4ncccc43)cc2)c(N2CC3(CCOCC3)C2)n1 [Example 46]
10 to 50	Cc1ccc(C(=O)Nc2ccc(C(=O)N3CCc4cc(NC(=O)c5c(F)cccc5Cl)sc4-c4ncccc43)cc2)c(N2CC3(CCOCC3)C2)n1 [Example 159]
10 to 50	Cc1cnc(N2CC3(CCOCC3)C2)c(C(=O)Nc2ccc(C(=O)N3CCc4cc(C(=O)Nc5c(F)cccc5Cl)oc4-c4ncccc43)cc2)c1 [Example 117]
< 10	Cc1cnc(N2CC3(CCOCC3)C2)c(C(=O)Nc2ccc(C(=O)N3CCc4cc(C(=O)NC5CCOCC5)sc4-c4ncccc43)cc2)c1 [Example 27]
< 10	Cc1cnc2c(c1)N(C(=O)c1ccc(NC(=O)c3cccnc3N3CC4(CCOCC4)C3)cc1)CCc1cc(C(=O)Nc3c(F)cccc3Cl)sc1-2 [Example 162]
< 10	Cc1cnc(N2CCC3(CC2)COC3)c(C(=O)Nc2ccc(C(=O)N3CCc4cc(C(=O)Nc5c(Cl)cccc5Cl)sc4-c4ncccc43)cc2)c1 [Example 91]
< 10	Cc1ccc(C(=O)Nc2ccc(C(=O)N3CCc4cc(C(=O)Nc5c(F)cccc5Cl)sc4-c4ncccc43)cc2)c(N2CC3(CCOCC3)C2)n1 [Example 44]
< 10	Cc1cnc(N2CC3(CCOCC3)C2)c(C(=O)Nc2ccc(C(=O)N3CCc4c(sc(C(=O)Nc5ccccc5)c4F)-c4ncccc43)cc2)c1 [Example 74]
< 10	O=C(Nc1c(F)cccc1F)c1cc2c(o1)-c1ncccc1N(C(=O)c1ccc(NC(=O)c3cc4c(nc3N3CC5(CCOCC5)C3)CCC4)cc1)CC2 [Example 119]
< 10	Cc1ccc(C(=O)Nc2ccc(C(=O)N3CCc4c(sc(C(=O)Nc5c(F)cccc5Cl)c4F)-c4ncccc43)cc2)c(N2CC3(CCOCC3)C2)n1 [Example 86]
> 50	Cc1cnc(N2CC3(CCOCC3)C2)c(C(=O)Nc2ccc(C(=O)N3CCc4cc(-c5nc6cccc(F)c6[nH]5)oc4-c4ccncc43)cc2)c1 [Example 127]
> 50	Cc1ccc2c(n1)-c1sc(C(=O)Nc3c(C)cccc3C#N)cc1CCN2C(=O)c1ccc(NC(=O)c2ccc(C)nc2N2CC3(CCOCC3)C2)cc1 [Example 147]
> 50	Cc1ccc2c(n1)-c1sc(C(=O)Nc3c(F)cccc3C(F)(F)F)cc1CCN2C(=O)c1ccc(NC(=O)c2ccc(C)nc2N2CC3(CCOCC3)C2)cc1 [Example 149]
< 10	Cc1cnc(N2CC3(CCOCC3)C2)c(C(=O)Nc2ccc(C(=O)N3CCc4cc(C(=O)Nc5c(Cl)cncc5Cl)sc4-c4ncccc43)cc2)c1 [Example 37]

Source: US10851115B2, “Heterocyclic compounds as RSV inhibitors” (Enanta Pharmaceuticals, Inc., priority 2017, dated 2020)
